From the NIST ThermoML archive (doi:10.1021/je300827f)
± gives the expanded uncertainty stated by the source.

Experiment: xn = mol fraction of the nth substance listed
Conditions: 101 kPa, Liquid, x2 = 0; for viscosity: Capillary tube (Ostwald / Ubbelohde) method; for mass density: Vibrating tube method

CC(C)O [propan-2-ol] + OCCOCCO
Conditions	mass density [kg/m3]	viscosity [mPa·s]
298.15 K	781.1 ± 0.2	2.06 ± 0.08
303.15 K	776.7 ± 0.2	1.79 ± 0.07
308.15 K	771.8 ± 0.2	1.56 ± 0.06
313.15 K	767.4 ± 0.2	1.38 ± 0.06
